Measured values reported in paper PMC9102038 (International Journal of Molecular Sciences, 2022).
Where two headings read alike, the source gives them in different places.

Columns and labels:
[1] = single dose (200 mg) of bezafibrate; read-out: maximal plasma concentration (Cmax); cited from earlier work
[2] = test system: PPARα; parameters: method as in PMID 14982965; conditions: read-out: EC50, PPARα transactivation, previous experiments; cited from earlier work
[3] = test system: PPARδ; parameters: method as in PMID 14982965; conditions: read-out: EC50, PPARδ transactivation, previous experiments; cited from earlier work
[4] = test system: PPARγ; parameters: method as in PMID 14982965; conditions: read-out: EC50, PPARγ transactivation, previous experiments; cited from earlier work
[5] = biological target: T1, PPARδ-LBD (Homo sapiens, UniProt Q03181); assay: TR-FRET SRC1 coactivator peptide recruitment assay, PPARδ-LBD
T1 sequence (Q03181 170-441): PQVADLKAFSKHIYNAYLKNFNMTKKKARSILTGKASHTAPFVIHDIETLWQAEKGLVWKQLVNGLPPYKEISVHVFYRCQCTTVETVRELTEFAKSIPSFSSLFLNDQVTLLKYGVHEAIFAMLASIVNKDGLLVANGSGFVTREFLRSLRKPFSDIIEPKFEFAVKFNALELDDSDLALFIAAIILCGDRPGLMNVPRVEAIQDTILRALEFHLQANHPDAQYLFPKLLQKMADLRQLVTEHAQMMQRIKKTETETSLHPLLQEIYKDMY

[6] = biological target: T2, human PPARγ-LBD (Homo sapiens, UniProt P37231); assay: TR-FRET SRC1 coactivator peptide recruitment assay, PPARγ-LBD
T2 sequence (P37231 203-477 isoform P37231-2): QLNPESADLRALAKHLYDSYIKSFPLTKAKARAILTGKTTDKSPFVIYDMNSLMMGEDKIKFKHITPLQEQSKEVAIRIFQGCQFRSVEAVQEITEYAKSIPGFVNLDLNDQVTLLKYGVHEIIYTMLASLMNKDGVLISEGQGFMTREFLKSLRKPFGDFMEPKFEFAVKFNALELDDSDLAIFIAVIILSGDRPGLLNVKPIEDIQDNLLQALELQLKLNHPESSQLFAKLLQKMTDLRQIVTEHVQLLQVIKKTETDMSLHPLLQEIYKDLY

[7] = biological target: T2, human PPARγ-LBD; assay: TR-FRET PGC1α coactivator peptide recruitment assay, PPARγ-LBD
[8] = biological target: T3, GAL4–human PPARα-LBD chimera (Homo sapiens, UniProt Q07869); assay: GAL4–hPPARα-LBD dual luciferase transactivation assay in COS-7 cells
T3 sequence (Q07869 239-466 limits assumed): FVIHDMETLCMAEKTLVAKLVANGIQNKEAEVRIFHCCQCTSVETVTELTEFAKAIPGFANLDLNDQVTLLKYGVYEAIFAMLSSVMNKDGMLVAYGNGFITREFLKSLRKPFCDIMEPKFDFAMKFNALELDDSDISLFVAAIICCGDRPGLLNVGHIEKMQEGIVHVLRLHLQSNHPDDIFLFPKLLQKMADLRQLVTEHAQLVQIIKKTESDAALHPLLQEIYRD

[9] = biological target: T4, GAL4–human PPARδ-LBD chimera (Homo sapiens, UniProt Q03181); assay: GAL4–hPPARδ-LBD dual luciferase transactivation assay in COS-7 cells; conditions: for efficacy, PPARδ-LBD-mediated transactivation: maximal effect of GW501516 (0.02 µM) as 100%
T4 sequence (Q03181 211-439 limits assumed): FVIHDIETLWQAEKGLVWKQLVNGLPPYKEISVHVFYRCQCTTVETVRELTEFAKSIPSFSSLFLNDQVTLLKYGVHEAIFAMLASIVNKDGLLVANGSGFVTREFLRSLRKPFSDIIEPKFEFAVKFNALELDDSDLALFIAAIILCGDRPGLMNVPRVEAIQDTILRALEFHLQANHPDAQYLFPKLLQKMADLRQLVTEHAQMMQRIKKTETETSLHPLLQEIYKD

[10] = biological target: T5, GAL4–human PPARγ-LBD chimera (Homo sapiens, UniProt P37231); assay: GAL4–hPPARγ-LBD dual luciferase transactivation assay in COS-7 cells; conditions: for efficacy, PPARγ-LBD-mediated transactivation: maximal effect of GW1929 (1 µM) as 100%
T5 sequence (P37231 238-503 limits assumed): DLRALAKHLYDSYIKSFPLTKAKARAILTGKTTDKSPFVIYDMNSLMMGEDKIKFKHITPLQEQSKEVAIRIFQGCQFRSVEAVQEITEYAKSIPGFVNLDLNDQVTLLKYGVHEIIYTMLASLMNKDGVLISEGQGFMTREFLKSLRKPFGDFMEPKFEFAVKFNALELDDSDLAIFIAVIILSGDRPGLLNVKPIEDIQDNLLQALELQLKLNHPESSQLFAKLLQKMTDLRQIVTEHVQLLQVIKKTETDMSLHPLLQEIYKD

[11] = biological target: T1, PPARδ-LBD; assay: TR-FRET PGC1α coactivator peptide recruitment assay, PPARδ-LBD
[12] = biological target: T6, human PPARα-LBD (Homo sapiens, UniProt Q07869); assay: TR-FRET SRC1 coactivator peptide recruitment assay, PPARα-LBD
T6 sequence (Q07869 200-468): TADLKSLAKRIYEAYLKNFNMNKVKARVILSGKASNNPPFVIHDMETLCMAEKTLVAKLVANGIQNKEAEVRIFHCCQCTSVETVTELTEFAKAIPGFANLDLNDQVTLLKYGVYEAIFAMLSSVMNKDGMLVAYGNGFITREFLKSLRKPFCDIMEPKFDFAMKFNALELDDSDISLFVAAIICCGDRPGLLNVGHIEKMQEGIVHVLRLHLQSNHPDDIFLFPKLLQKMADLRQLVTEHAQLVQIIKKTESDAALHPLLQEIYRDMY

[13] = biological target: T6, human PPARα-LBD; assay: TR-FRET PGC1α coactivator peptide recruitment assay, PPARα-LBD
[14] = biological target: T1, PPARδ-LBD; assay: Circular dichroism thermostability assay, PPARδ-LBD; type: binding; parameters: His-tag (pET28a) (N, cleaved yes); made in house; host or cells: E. coli Rosetta (DE3) pLysS; conditions: CD at 222 nm, 10 µM protein, versus 0.1% DMSO
Experimental: Ligand-induced alterations in Tm values at 222 nm were investigated as types of reflection of α-helical stable structures of PPARs because PPAR ligand binding induces stabilization of the LBP [23, 24].
PPARα/δ/γ-LBD proteins (10 µM) were incubated with different concentrations of ligands in buffer A. CD spectra were monitored within 200–260 nm at increasing temperatures from 30 °C to 70 °C (2 °C/min) using a J-1500 spectropolarimeter equipped with a PTC-510 thermal controller (JASCO, Tokyo, Japan). […] The thermal stability of PPARs was investigated by continuously monitoring the ellipticity changes at 222 nm during thermal denaturation, and a single-site sigmoidal dose-response curve fitting program (Prism 5) was used to obtain the melting temperature (Tm) that corresponds to the midpoint of the denaturation process. The ligand-induced increases in Tm values are defined as ∆Tm.

[15] = COS-7 cells, maximal effect of GW7647 (0.1 µM) as 100%

Compound | EC50 [5] [µM] | EC50 [6] [µM] | EC50 [7] [µM] | EC50 [9] [µM] | efficacy, PPARδ-LBD-mediated transactivation ([9]; COS-7 cells) [%] | EC50 [10] [µM] | efficacy, PPARγ-LBD-mediated transactivation ([10]; COS-7 cells) [%] | EC50 [11] [µM] | efficacy, PPARα-LBD-mediated transactivation [8, 15] [%] | also measured
CC(C)(Oc1ccc(CCNC(=O)c2ccc(Cl)cc2)cc1)C(=O)O [bezafibrate] | 31.8 | 76 | 48.9 | 86.7 | 15.2 | 178 | 77.1 | – | – | Cmax [1]: 20.4 µM; EC50 [2]: 25 µM; EC50 [3]: 95 µM; EC50 [4]: > 100 µM; efficacy, PPARα-LBD-mediated transactivation [8]: 93.6%
CC[C@@H](Oc1cccc(CN(CCCOc2ccc(OC)cc2)c2nc3ccccc3o2)c1)C(=O)O [pemafibrate] | 4.82 | > 10 | 9.7 | 1.39 | 11.3 | > 5 | 119 | 6.11 | 107 | –
CC(C)(Oc1ccc(C(=O)c2ccc(Cl)cc2)cc1)C(=O)O [fenofibric acid] | > 500 | – | – | > 500 | – | – | 87.7 | > 100 | 104 | EC50 [12]: 9.87 µM; EC50 [13]: 20.9 µM; PGC1α recruitment to PPARδ-LBD (in words) ([11]; TR-FRET): did not recruit PGC1α; EC50 [8]: 9.47 µM; PPARδ-LBD-mediated transactivation (in words) ([9]; COS-7 cells): did not induce transactivation; effect on Tm of PPARδ-LBD (thermostability, in words) [14]: increased thermostability
GW1929 | – | – | – | – | – | – | – | – | – | maximal effect, SRC1 recruitment to PPARγ-LBD (× of the basal activity) ([6]; at 1 µM): 9.26 ×; maximal effect, PGC1α recruitment to PPARγ-LBD (× of the basal activity) ([7]; at 1 µM): 5.80 ×; maximal effect, PPARγ-LBD-mediated transactivation (× of the basal activity) ([10]; COS-7 cells, at 1 µM): 2.26 ×
CC(C)(Sc1ccc(CCN(CCCCC2CCCCC2)C(=O)NC2CCCCC2)cc1)C(=O)O [GW7647] | – | – | – | – | – | – | – | – | – | maximal effect, SRC1 recruitment to PPARα-LBD (× of the basal activity) ([12]; at 1 µM): 6.12 ×; maximal effect, PGC1α recruitment to PPARα-LBD (× of the basal activity) ([13]; at 1 µM): 8.87 ×; maximal effect, PPARα-LBD-mediated transactivation (× of the basal activity) ([8]; COS-7 cells, at 0.1 µM): 5.73 ×
